# Measurements reported in publication PMC12117170.
# Assay: Intramolecular Cu-catalysed sydnonimine-alkyne click-and-release (forms 1,4-disubstituted pyrazole, releases CO2 and pyrenylmethyl urea/isocyanate): CuSO4 0.2 eq, bathophenanthroline disulfonate 0.4 eq, Na ascorbate 3 eq, triethanolamine 2 eq, 16 h; rGO filtration and aqueous work-up
# Settings: DMSO/H2O 1:1, 35.0 mM, 37.0 °C
compound,measurement,setting,value
O=C1CCc2cnn(c2)-c2cccc(c2)C(=O)Nc2ccc(cc2)Oc2cccc(c2)Oc2ccc(cc2)N1 [S8 -> CyP8],"ring closure, isolated yield","from C#CCCC(=O)Nc1ccc(Oc2cccc(Oc3ccc(NC(=O)c4cccc(-[n+]5cc([N-]C(=O)NCc6ccc7ccc8cccc9ccc6c7c89)on5)c4)cc3)c2)cc1, 25-membered ring",72%
O=C1CCCCNC(=O)c2cccc(c2)-n2cc(cn2)CN1 [S2 -> CyP2],"ring closure, isolated yield","from C#CCNC(=O)CCCCNC(=O)c1cccc(-[n+]2cc([N-]C(=O)NCc3ccc4ccc5cccc6ccc3c4c56)on2)c1, 15-membered ring",75%
COC(=O)[C@@H]1CCCCNC(=O)c2cccc(c2)-n2cc(cn2)CCCC(=O)N1 [hex-5-ynoyl-Lys(Nε-3-(sydnonimine-pyrene)benzoyl)-OMe],"ring closure, isolated yield","from C#CCCCC(=O)N[C@@H](CCCCNC(=O)c1cccc(-[n+]2cc([N-]C(=O)NCc3ccc4ccc5cccc6ccc3c4c56)on2)c1)C(=O)OC, 18-membered ring",76%
O=C1CCCCCCCCCCNC(=O)c2cccc(c2)-n2cc(cn2)CNC(=O)CCCCN1 [S6 -> CyP6],"ring closure, isolated yield","from C#CCNC(=O)CCCCNC(=O)CCCCCCCCCCNC(=O)c1cccc(-[n+]2cc([N-]C(=O)NCc3ccc4ccc5cccc6ccc3c4c56)on2)c1, 27-membered ring",78%
C#CCNC(=O)CNC(=O)c1cccc(-[n+]2cc([N-]C(=O)NCc3ccc4ccc5cccc6ccc3c4c56)on2)c1 [S1 -> CyP1],"ring closure, isolated yield","the molecule shown is the open-chain precursor, 12-membered ring",0%
O=C1NCCOCCOCCOCc2cnn(c2)-c2cccc1c2 [S7 -> CyP7 (50 C)],"ring closure, isolated yield","from C#CCOCCOCCOCCNC(=O)c1cccc(-[n+]2cc([N-]C(=O)NCc3ccc4ccc5cccc6ccc3c4c56)on2)c1, 18-membered ring",81%
O=C1CCCCCCCCCCNC(=O)c2cccc(c2)-n2cc(cn2)CN1 [S4 -> CyP4],"ring closure, isolated yield","from C#CCNC(=O)CCCCCCCCCCNC(=O)c1cccc(-[n+]2cc([N-]C(=O)NCc3ccc4ccc5cccc6ccc3c4c56)on2)c1, 21-membered ring",65%
O=C1CCCCCCCNC(=O)c2cccc(c2)-n2cc(cn2)CN1 [S3 -> CyP3],"ring closure, isolated yield","from C#CCNC(=O)CCCCCCCNC(=O)c1cccc(-[n+]2cc([N-]C(=O)NCc3ccc4ccc5cccc6ccc3c4c56)on2)c1, 18-membered ring",85%
CC(C)C[C@@H]1NC(=O)[C@@H]2CCCN2Cc2cnn(c2)-c2cccc(c2)C(=O)NCCNC(=O)CNC1=O,"ring closure, isolated yield","from C#CCN1CCC[C@H]1C(=O)N[C@@H](CC(C)C)C(=O)NCC(=O)NCCNC(=O)c1cccc(-[n+]2cc([N-]C(=O)NCc3ccc4ccc5cccc6ccc3c4c56)on2)c1, 21-membered ring",79%
CC(C)C[C@@H]1NC(=O)c2cccc(c2)-n2cc(cn2)CNC(=O)[C@H](C)NC1=O [3-(sydnonimine-pyrene)benzoyl-Leu-Ala-NH-propargyl],"ring closure, isolated yield","from C#CCNC(=O)[C@H](C)NC(=O)[C@H](CC(C)C)NC(=O)c1cccc(-[n+]2cc([N-]C(=O)NCc3ccc4ccc5cccc6ccc3c4c56)on2)c1, 15-membered ring",68%
O=C1CNC(=O)[C@H](Cc2c[nH]c3ccccc23)NC(=O)c2cccc(c2)-n2cc(cn2)CN1 [3-(sydnonimine-pyrene)benzoyl-Trp-Gly-NH-propargyl],"ring closure, isolated yield","from C#CCNC(=O)CNC(=O)[C@H](Cc1c[nH]c2ccccc12)NC(=O)c1cccc(-[n+]2cc([N-]C(=O)NCc3ccc4ccc5cccc6ccc3c4c56)on2)c1, 15-membered ring",75%
CC(C)C[C@@H]1NC(=O)[C@H](Cc2ccccc2)NC(=O)c2cccc(c2)-n2cc(cn2)CNC1=O [3-(sydnonimine-pyrene)benzoyl-Phe-Leu-NH-propargyl],"ring closure, isolated yield","from C#CCNC(=O)[C@H](CC(C)C)NC(=O)[C@H](Cc1ccccc1)NC(=O)c1cccc(-[n+]2cc([N-]C(=O)NCc3ccc4ccc5cccc6ccc3c4c56)on2)c1, 15-membered ring",63%
O=C1CCCCCCCCCCNC(=O)c2cccc(c2)-n2cc(cn2)CNC(=O)CN1 [S5 -> CyP5],"ring closure, isolated yield","from C#CCNC(=O)CNC(=O)CCCCCCCCCCNC(=O)c1cccc(-[n+]2cc([N-]C(=O)NCc3ccc4ccc5cccc6ccc3c4c56)on2)c1, 24-membered ring",68%
